Experimental data: patent EP0309765A2, “1(2H)-Phthalazinones as cytoprotective agents” (FISONS CORPORATION, priority 1987, dated 1989)
Counter-ions that a name gives are not always drawn.

Test system: Indomethacin-induced Gastric Lesions
Assay: Reversal of indomethacin-induced gastric lesions (number of macroscopically visible hemorrhagic lesions in the glandular stomach)
Assay type: in vivo, Male, Sprague-Dawley rats
Settings: Rattus norvegicus, ip, 6 h; test compound 50 mg/kg intraperitoneal, 1 hour before 25 mg/kg oral indomethacin; lesions counted six hours after indomethacin; versus saline control group; read-out: Percent Inhibition
Protocol: The methodology for determining the degree of inhibition of gastric lesion formation by the compounds of formula 1 is described below and the results, expressed as percent inhibition, are given in Table 1. Reversal of Indomethacin-induced Gastric Lesions Male, Sprague-Dawley rats weighing 200-225 grams were fasted 24 hours prior to the intraperitoneal administration of the test compounds. The standard screening dosed employed was either 100 or 50 mg/kg. One hour later, the rats were orally administered 25 mg/kg of indomethacin. Both indomethacin and the compounds were suspended in 1% Clearjel ("Instant Clearjel®", a food grade pregelatinized starch from National Starch and Chemical Corporation, New York, N.Y.) or .85% NaCl saline for dosing. Six hours after indomethacin administration, the animals were sacrificed, their stomachs removed, opened along the line of greater curvature, and rinsed with distilled water. The number of macroscopically visible hemmorhagic lesions (dark brown discolorations) in the glandular portion of the stomach was enumerated. […] [table]

Question: With COc1ccc(/C=C/c2ccc3c(=O)n(CCCN4CCCCC4)ncc3c2)cc1 [Example 2, Trans-6-[2-(4-methoxyphenyl)ethenyl]-2-(3-piperidinopropyl)-phthalazin-1(2H)-one hydrobromide] as the compound, how does the inhibition in vivo at 50 mg/kg read?
Answer: The inhibition in vivo at 50 mg/kg was 91%.

Question: COc1ccc(/C=C/c2ccc3c(=O)n(CCN4CCOCC4)ncc3c2)cc1 [Example 4, Trans-6-[2-(4-methoxyphenyl)ethenyl]-2-(2-morpholinoethyl)-phthalazin-1(2H)-one hydrobromide] was tested. Which inhibition in vivo at 50 mg/kg did it give?
Answer: Its inhibition in vivo at 50 mg/kg is 7%.

Question: For COc1ccc(/C=C/c2ccc3c(=O)n(CCCN4CCNCC4)ncc3c2)cc1 [Example 5, Trans-6-[2-(4-methoxyphenyl)ethenyl]-2-[3-(1-piperazino)-propyl]phthalazin-1(2H)-one], which inhibition in vivo at 50 mg/kg is on record?
Answer: Its inhibition in vivo at 50 mg/kg is 89%.

Question: How did the inhibition in vivo at 50 mg/kg turn out when CNCCCn1ncc2cc(/C=C/c3ccc(OC)cc3)ccc2c1=O [Example 7, Trans-6-[2-(4-methoxyphenyl)ethenyl]-2-[3-(methylamino)-propyl]phthalazin-1(2H)-one hydrobromide] was run?
Answer: Its inhibition in vivo at 50 mg/kg is 79%.

Question: With COc1ccc(/C=C/c2ccc3c(=O)n(CCCN)ncc3c2)cc1 [Example 8, Trans-6-[2-(4-methoxyphenyl)ethenyl]-2-(3-aminopropyl)-phthalazin-1(2H)-one hydrobromide] as the compound, how does the inhibition in vivo at 50 mg/kg read?
Answer: Its inhibition in vivo at 50 mg/kg is 96%.

Question: For COc1ccc(/C=C/c2ccc3c(=O)n(CCCCN(C)C)ncc3c2)cc1 [Example 9, Trans-6-[2-(4-methoxyphenyl)ethenyl]-2-[4-(dimethylamino)-butyl]phthalazin-1(2H)-one hydrobromide], which inhibition in vivo at 50 mg/kg is on record?
Answer: Its inhibition in vivo at 50 mg/kg is 85%.

Question: With COc1ccc(/C=C\c2ccc3c(=O)n(CCCN(C)C)ncc3c2)cc1 [Example 10, CIs-6-[2-(4-methoxyphenyl)ethenyl]-2-[3-(dimethylamino)propyl]phthalazin-1(2H)-one cyclohexylsulfamate] as the compound, how does the inhibition in vivo at 50 mg/kg read?
Answer: The inhibition in vivo at 50 mg/kg was 61%.

Question: For COc1ccc(/C=C/c2ccc3c(=O)n(CCCN(C)C)ncc3c2)cc1 [Example 13, Trans-6-[2-(4-methoxyphenyl)ethenyl]-2-[3-dimethylamino)-propyl]phthalazin-1(2H)-one hydrobromide], which inhibition in vivo at 50 mg/kg is on record?
Answer: Its inhibition in vivo at 50 mg/kg is 99%.

Question: For CN(C)CCCn1ncc2cc(/C=C/c3ccc(O)cc3)ccc2c1=O [Example 14, Trans-6-[2-(4-hydroxyphenyl)ethenyl]-2-[3-(dimethylamino)-propyl]phthalazin-1(2H)-one hydrochloride], which inhibition in vivo at 50 mg/kg is on record?
Answer: Its inhibition in vivo at 50 mg/kg is 96.3%.

Question: Which inhibition in vivo at 50 mg/kg does the source give for CN(C)CCCn1ncc2cc(/C=C/c3ccccc3)ccc2c1=O [Example 16, Trans-2-[3-(dimethylamino)propyl]-6-(2-phenylethenyl)-1(2H)-phthalazinone] here?
Answer: The inhibition in vivo at 50 mg/kg was 80%.

Same assay, conditions: Rattus norvegicus, ip, 6 h; test compound 100 mg/kg intraperitoneal, 1 hour before 25 mg/kg oral indomethacin; lesions counted six hours after indomethacin; versus saline control group; read-out: Percent Inhibition

Question: With COc1ccc(/C=C/c2ccc3c(=O)n(CCN(C(C)C)C(C)C)ncc3c2)cc1 [Example 1, Trans-6-[2-(4-methoxyphenyl)ethenyl]-2-[2-(diisopropylamino)-ethyl]phthalazin-1(2H)-one hydrobromide] as the compound, how does the inhibition in vivo at 100 mg/kg read?
Answer: Its inhibition in vivo at 100 mg/kg is 92%.

Question: With COc1ccc(/C=C/c2ccc3c(=O)n(CCN(C)C)ncc3c2)cc1 [Example 3, Trans-6-[2-(4-methoxyphenyl)ethenyl]-2-[2-(dimethylamino)-ethyl]phthalazin-1(2H)-one hydrobromide] as the compound, how does the inhibition in vivo at 100 mg/kg read?
Answer: The inhibition in vivo at 100 mg/kg was 65%.

Question: How did the inhibition in vivo at 100 mg/kg turn out when COc1ccc(/C=C/c2ccc3c(=O)n(C4CCN(C)CC4)ncc3c2)cc1 [Example 6, Trans-6-[2-(4-methoxyphenyl)ethenyl]-2-(1-methyl-4-piperidinyl)phthalazin-1(2H)-one] was run?
Answer: The inhibition in vivo at 100 mg/kg was 63%.

Question: O=c1[nH]ncc2cc(/C=C/c3ccc(O)cc3)ccc12 [Example 11, Trans-6-[2-(4-Hydroxyphenyl)ethenyl]-phthalazin-1(2H)-one] was tested. Which inhibition in vivo at 100 mg/kg did it give?
Answer: The inhibition in vivo at 100 mg/kg was 45%.

Question: How did the inhibition in vivo at 100 mg/kg turn out when O=c1[nH]ncc2cc(/C=C/c3ccccc3)ccc12 [Example 12, Trans-6-[2-phenylethenyl]phthalazin-1(2H)-one] was run?
Answer: Its inhibition in vivo at 100 mg/kg is 43%.

Question: For CN(C)CCn1ncc2cc(/C=C/c3ccc(O)cc3)ccc2c1=O [Example 15, Trans-6-[2-(4-hydroxyphenyl)ethenyl]-2-[2-(dimethylamino)-ethyl]-1(2H)-phthalazinone hydrochloride], which inhibition in vivo at 100 mg/kg is on record?
Answer: Its inhibition in vivo at 100 mg/kg is 7.2%.

Question: Which inhibition in vivo at 100 mg/kg does the source give for O=c1c2ccc(/C=C/c3ccccc3)cc2cnn1CCO [Example 17, Trans-2-(2-hydroxyethyl)-6-(2-phenylethenyl)-1(2H)-phthalazinone] here?
Answer: Its inhibition in vivo at 100 mg/kg is 59%.
